In patent US8673905B2, “Imidazo pyrazines” (Hoffmann-La Roche Inc., priority 2011, dated 2014):
Structures can show the parent of a compound that is named as a salt.

Tests used:
MV4-11 cells = assay: Cell Glo Viability Assay (Luminescence), MV4-11; format: cell-based; conditions: Homo sapiens, 120 h; MV4-11 cells (mutated FLT3), 5 days, CellTiter-Glo; read-out: Cellular EC50 (μM) MV4-11
Protocol: (§1) Molm13 cells, a human acute monocytic leukemia cell line, and MV4-11 cells, a human leukemia cell line known to express mutated FLT3 cells (both from ATCC) were seeded separately at 2000 cells per well in 90 μL of RPMI1640 medium supplemented with 10% FBS in 96-well black-walled plates (BD Falcon). Test compounds were diluted at ten times of assay concentrations, 10 μL was added into duplicate wells. Plates were incubated at 37° C. with 5% CO2 for 5 days. Cell viability was assayed by CellTiter-Glo® Luminescent Cell Viability Assay (Promega) following manufacturer's protocol.
(§2) The results of this assay, given as EC50 values, indicate the concentration of test compound that inhibits tumor cell proliferation by 50%.

human recombinant FLT3 = human recombinant FLT3 (Homo sapiens (Human), UniProt P36888); assay: FLT3 Kinase Assay (Caliper mobility shift); format: biochemical; conditions: for IC50: 100 μM ATP, 28° C., 90 minutes, read-out: Enzyme IC50 (μM) FLT3; for inhibition at 10 µM: 10 μM test compound, reported where IC50 was not determined, read-out: % inhibition of FLT3 at 10 μM test compound concentration
human recombinant FLT3, sequence (P36888 27-993): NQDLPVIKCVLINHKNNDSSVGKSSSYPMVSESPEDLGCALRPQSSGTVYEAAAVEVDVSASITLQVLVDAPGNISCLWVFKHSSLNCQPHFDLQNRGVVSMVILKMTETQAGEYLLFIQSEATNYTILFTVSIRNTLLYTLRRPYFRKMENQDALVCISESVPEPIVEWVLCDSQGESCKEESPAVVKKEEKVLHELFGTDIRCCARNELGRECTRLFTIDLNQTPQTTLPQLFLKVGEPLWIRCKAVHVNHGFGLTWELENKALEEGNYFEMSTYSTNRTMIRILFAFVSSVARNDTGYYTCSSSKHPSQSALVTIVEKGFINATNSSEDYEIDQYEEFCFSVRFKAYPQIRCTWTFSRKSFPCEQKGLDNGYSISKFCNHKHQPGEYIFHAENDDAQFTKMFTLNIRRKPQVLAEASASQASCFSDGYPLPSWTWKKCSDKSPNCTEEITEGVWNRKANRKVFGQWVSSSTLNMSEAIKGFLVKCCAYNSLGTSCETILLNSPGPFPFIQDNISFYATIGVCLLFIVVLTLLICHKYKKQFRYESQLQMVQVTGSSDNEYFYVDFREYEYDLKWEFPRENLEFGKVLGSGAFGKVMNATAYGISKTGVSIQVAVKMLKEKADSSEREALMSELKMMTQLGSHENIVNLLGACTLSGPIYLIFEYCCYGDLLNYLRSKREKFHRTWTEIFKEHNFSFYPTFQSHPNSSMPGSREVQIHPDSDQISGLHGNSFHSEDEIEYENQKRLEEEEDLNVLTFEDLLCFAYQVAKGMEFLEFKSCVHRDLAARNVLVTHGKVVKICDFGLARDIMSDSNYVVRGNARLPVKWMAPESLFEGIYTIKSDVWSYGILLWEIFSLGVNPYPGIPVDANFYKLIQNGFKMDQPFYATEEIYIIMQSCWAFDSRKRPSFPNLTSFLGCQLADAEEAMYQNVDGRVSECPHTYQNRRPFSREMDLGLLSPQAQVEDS
Protocol: After incubation, the reaction product was analyzed by electrophoretic mobility shift run on Caliper by manufacturer's protocol.

Molm13 cells = assay: Cell Glo Viability Assay (Luminescence), Molm13; format: cell-based; conditions: Homo sapiens, MOLM-13, 120 h, 5 days, CellTiter-Glo, read-out: Cellular EC50 (μM) Molm13
Protocol: as §1, §2

N[C@H]1CC[C@H](Nc2nccn3c(-c4cccc(NCc5ccccc5Cl)n4)cnc23)CC1 [Example 85, N-{3-[6-(2-Chloro-benzylamino)-pyridin-2-yl]-imidazo[1,2-a]pyrazin-8-yl}-cyclohexane-1,4-diamine; hydrochloride]
EC50 (MV4-11 cells): < 0.014 µM | IC50 (human recombinant FLT3): < 0.005 µM | EC50 (Molm13 cells): < 0.014 µM

CN1CCN(c2nccn3c(-c4ccnc(NCc5cccs5)n4)cnc23)CC1 [Example 64, {4-[8-(4-Methyl-piperazin-1-yl)-imidazo[1,2-a]pyrazin-3-yl]-pyrimidin-2-yl}-thiophen-2-ylmethyl-amine; hydrochloride]
inhibition at 10 µM (human recombinant FLT3): 33.5%

N[C@H]1CC[C@H](Nc2nccn3c(-c4cccc(NCc5cccs5)n4)cnc23)CC1 [Example 87, N-(3-{6-[(Thiophen-2-ylmethyl)-amino]-pyridin-2-yl}-imidazo[1,2-a]pyrazin-8-yl)-cyclohexane-1,4-diamine; hydrochloride]
EC50 (MV4-11 cells): 0.07 µM | EC50 (Molm13 cells): 0.074 µM

N[C@H]1CC[C@H](Nc2nccn3c(-c4cccc(NCc5ccccc5)n4)cnc23)CC1 [Example 73, N-[3-(6-Benzylamino-pyridin-2-yl)-imidazo[1,2-a]pyrazin-8-yl]-cyclohexane-1,4-diamine; hydrochloride]
EC50 (MV4-11 cells): 0.04 µM | EC50 (Molm13 cells): 0.077 µM

Clc1cccc(CNc2nccc(-c3cnc4c(NCCN5CCOCC5)nccn34)n2)c1 [Example 89, {3-[2-(3-Chloro-benzylamino)-pyrimidin-4-yl]-imidazo[1,2-a]pyrazin-8-yl}-(2-morpholin-4-yl-ethyl)-amine; hydrochloride]
EC50 (MV4-11 cells): 0.06 µM | EC50 (Molm13 cells): 0.075 µM

N[C@H]1CC[C@H](Nc2nccn3c(-c4cccc(NCc5ccc(Cl)cc5)n4)cnc23)CC1 [Example 86, N-{3-[6-(4-Chloro-benzylamino)-pyridin-2-yl]-imidazo[1,2-a]pyrazin-8-yl}-cyclohexane-1,4-diamine; hydrochloride]
EC50 (MV4-11 cells): 0.385 µM | EC50 (Molm13 cells): 0.353 µM

CN1CCN(c2nccn3c(-c4cccc(NCc5ccc(Cl)cc5)n4)cnc23)CC1 [Example 71, (4-Chloro-benzyl)-{6-[8-(4-methyl-piperazin-1-yl)-imidazo[1,2-a]pyrazin-3-yl]-pyridin-2-yl}-amine; hydrochloride]
inhibition at 10 µM (human recombinant FLT3): 13.2%

NCCC(Nc1cccc(-c2cnc3c(NCCN4CCOCC4)nccn23)n1)c1cccc(Cl)c1 (stereo not drawn) [Example 90, 1-(3-Chloro-phenyl)-N-1-{6-[8-(2-morpholin-4-yl-ethylamino)-imidazo[1,2-a]pyrazin-3-yl]-pyridin-2-yl}-propane-1,3-diamine hydrochloride]
EC50 (MV4-11 cells): < 0.014 µM | IC50 (human recombinant FLT3): < 0.005 µM | EC50 (Molm13 cells): 0.034 µM

NCCC(Nc1cccc(-c2cnc3c(N[C@H]4CC[C@H](N)CC4)nccn23)n1)c1ccccc1 (stereo partly drawn) [Example 81, N-{3-[6-(3-Amino-1-phenyl-propylamino)-pyridin-2-yl]-imidazo[1,2-a]pyrazin-8-yl}-cyclohexane-1,4-diamine; hydrochloride]
EC50 (MV4-11 cells): 0.288 µM | EC50 (Molm13 cells): 0.255 µM

N[C@H]1CC[C@H](Nc2nccn3c(-c4ccnc(NCc5ccccc5)n4)cnc23)CC1 [Example 68, N-[3-(2-Benzylamino-pyrimidin-4-yl)-imidazo[1,2-a]pyrazin-8-yl]-cyclohexane-1,4-diamine; hydrochloride]
EC50 (MV4-11 cells): 0.052 µM | IC50 (human recombinant FLT3): < 0.005 µM | EC50 (Molm13 cells): 0.061 µM

CNc1nccc(-c2cnc3c(NC4CCNCC4)nccn23)n1 [Example 26, [3-(2-Methylamino-pyrimidin-4-yl)-imidazo[1,2-a]pyrazin-8-yl]-piperidin-4-yl-amine]
EC50 (MV4-11 cells): 1.12 µM | EC50 (Molm13 cells): 2.56 µM

NCC(Nc1cccc(-c2cnc3c(NCCN4CCOCC4)nccn23)n1)c1cccc(Cl)c1 (stereo not drawn) [Example 91, 1-(3-Chloro-phenyl)-N-1-{6-[8-(2-morpholin-4-yl-ethylamino)-imidazo[1,2-a]pyrazin-3-yl]-pyridin-2-yl}-ethane-1,2-diamine hydrochloride]
EC50 (MV4-11 cells): < 0.014 µM | IC50 (human recombinant FLT3): < 0.005 µM | EC50 (Molm13 cells): < 0.014 µM

CNc1nccn2c(-c3ccnc(Nc4ccccc4)n3)cnc12 [Example 20, Methyl-[3-(2-phenylamino-pyrimidin-4-yl)-imidazo[1,2-a]pyrazin-8-yl]-amine]
EC50 (MV4-11 cells): 0.041 µM | IC50 (human recombinant FLT3): < 0.005 µM | EC50 (Molm13 cells): 0.052 µM

N[C@H]1CC[C@H](Nc2nccn3c(-c4ccnc(NCc5ccccc5Cl)n4)cnc23)CC1 [Example 83, N-{3-[2-(2-Chloro-benzylamino)-pyrimidin-4-yl]-imidazo[1,2-a]pyrazin-8-yl}-cyclohexane-1,4-diamine; hydrochloride]
EC50 (MV4-11 cells): 0.016 µM | IC50 (human recombinant FLT3): < 0.005 µM | EC50 (Molm13 cells): 0.021 µM

c1ccc(CNc2nccc(-c3cnc4c(NCCN5CCOCC5)nccn34)n2)cc1 [Example 72, [3-(2-Benzylamino-pyrimidin-4-yl)-imidazo[1,2-a]pyrazin-8-yl]-(2-morpholin-4-yl-ethyl)-amine; hydrochloride]
EC50 (MV4-11 cells): 0.124 µM | EC50 (Molm13 cells): 0.171 µM

NCC(Nc1nccc(-c2cnc3c(N[C@H]4CC[C@H](N)CC4)nccn23)n1)c1ccccc1 (stereo partly drawn) [Example 77, N-{3-[2-(2-Amino-1-phenyl-ethylamino)-pyrimidin-4-yl]-imidazo[1,2-a]pyrazin-8-yl}-cyclohexane-1,4-diamine; hydrochloride]
EC50 (MV4-11 cells): 0.015 µM | IC50 (human recombinant FLT3): < 0.005 µM | EC50 (Molm13 cells): 0.08 µM

Clc1ccccc1CNc1nccc(-c2cnc3c(NCCN4CCOCC4)nccn23)n1 [Example 88, {3-[2-(2-Chloro-benzylamino)-pyrimidin-4-yl]-imidazo[1,2-a]pyrazin-8-yl}-(2-morpholin-4-yl-ethyl)-amine; hydrochloride]
EC50 (MV4-11 cells): 0.055 µM | EC50 (Molm13 cells): 0.037 µM

CC(C)Nc1nccc(-c2cnc3c(NCCO)nccn23)n1 [Example 30, 2-[3-(2-Isopropylamino-pyrimidin-4-yl)-imidazo[1,2-a]pyrazin-8-ylamino]-ethanol]
EC50 (MV4-11 cells): 0.745 µM | EC50 (Molm13 cells): 2.19 µM

CN1CCN(c2nccn3c(-c4ccnc(NCc5ccc(Cl)cc5)n4)cnc23)CC1 [Example 59, (4-Chloro-benzyl)-{4-[8-(4-methyl-piperazin-1-yl)-imidazo[1,2-a]pyrazin-3-yl]-pyrimidin-2-yl}-amine; hydrochloride]
inhibition at 10 µM (human recombinant FLT3): 29.2%

NCCC(Nc1nccc(-c2cnc3c(N[C@H]4CC[C@H](N)CC4)nccn23)n1)c1ccccc1 (stereo partly drawn) [Example 76, N-{3-[2-(3-Amino-1-phenyl-propylamino)-pyrimidin-4-yl]-imidazo[1,2-a]pyrazin-8-yl}-cyclohexane-1,4-diamine; hydrochloride]
EC50 (MV4-11 cells): 0.232 µM | IC50 (human recombinant FLT3): < 0.005 µM | EC50 (Molm13 cells): 0.301 µM

CN1CCN(c2nccn3c(-c4ccnc(NC(CN)c5ccsc5)n4)cnc23)CC1 (stereo not drawn) [Example 75, N1-{4-[8-(4-Methyl-piperazin-1-yl)-imidazo[1,2-a]pyrazin-3-yl]-pyrimidin-2-yl}-1-thiophen-3-yl-ethane-1,2-diamine; hydrochloride]
EC50 (MV4-11 cells): 0.878 µM | EC50 (Molm13 cells): 1.69 µM

N[C@H]1CC[C@H](Nc2nccn3c(-c4ccnc(NCc5cccc(Cl)c5)n4)cnc23)CC1 [Example 67, N-{3-[2-(3-Chloro-benzylamino)-pyrimidin-4-yl]-imidazo[1,2-a]pyrazin-8-yl}-cyclohexane-1,4-diamine; hydrochloride]
EC50 (MV4-11 cells): 0.017 µM | IC50 (human recombinant FLT3): < 0.005 µM | EC50 (Molm13 cells): 0.049 µM

N[C@H]1CC[C@H](Nc2nccn3c(-c4cccc(NCc5cccc(Cl)c5)n4)cnc23)CC1 [Example 82, N-{3-[6-(3-Chloro-benzylamino)-pyridin-2-yl]-imidazo[1,2-a]pyrazin-8-yl}-cyclohexane-1,4-diamine; hydrochloride]
EC50 (MV4-11 cells): 0.049 µM | EC50 (Molm13 cells): 0.119 µM

CN1CCN(c2nccn3c(-c4ccnc(NC(CN)c5cccc(Cl)c5)n4)cnc23)CC1 (stereo not drawn) [Example 79, 1-(3-Chloro-phenyl)-N1-{4-[8-(4-methyl-piperazin-1-yl)-imidazo[1,2-a]pyrazin-3-yl]-pyrimidin-2-yl}-ethane-1,2-diamine; hydrochloride]
EC50 (MV4-11 cells): 1.01 µM | EC50 (Molm13 cells): 1.97 µM

NCC(Nc1cccc(-c2cnc3c(N[C@H]4CC[C@H](N)CC4)nccn23)n1)c1ccccc1 (stereo partly drawn) [Example 80, N-{3-[6-(2-Amino-1-phenyl-ethylamino)-pyridin-2-yl]-imidazo[1,2-a]pyrazin-8-yl}-cyclohexane-1,4-diamine; hydrochloride]
EC50 (MV4-11 cells): < 0.014 µM | IC50 (human recombinant FLT3): < 0.005 µM | EC50 (Molm13 cells): 0.041 µM

N[C@H]1CC[C@H](Nc2nccn3c(-c4cccc(NCc5ccsc5)n4)cnc23)CC1 [Example 84, N-(3-{6-[(Thiophen-3-ylmethyl)-amino]-pyridin-2-yl}-imidazo[1,2-a]pyrazin-8-yl)-cyclohexane-1,4-diamine; hydrochloride]
EC50 (MV4-11 cells): 0.068 µM | IC50 (human recombinant FLT3): < 0.005 µM | EC50 (Molm13 cells): 0.056 µM
